PubChem BioAssay (NCI)
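Growth conditions: 96-well plates. Treatment: test compound, 48 hours, 5 concentrations. Analysis: linear interpolation between bracketing concentrations; unreached endpoints set to highest concentration. TGI: total growth inhibition.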

Legend:
Assay in all cases: inhibition of tumour cell growth, NCI panel, 48 h
M19-MEL melanoma = tested on: M19-MEL melanoma
OVCAR-3 ovarian = tested on: OVCAR-3 ovarian
HCT-116 colon = tested on: HCT-116 colon
EKVX NSCLC = tested on: EKVX NSCLC
XF 498 CNS = tested on: XF 498 CNS
LXFL 529 NSCLC = tested on: LXFL 529 NSCLC
SK-MEL-28 melanoma = tested on: SK-MEL-28 melanoma
NCI-H23 lung = tested on: NCI-H23 lung
UO-31 renal = tested on: UO-31 renal
SK-MEL-2 melanoma = tested on: SK-MEL-2 melanoma
NCI-H522 lung = tested on: NCI-H522 lung
SK-OV-3 ovarian = tested on: SK-OV-3 ovarian
SR leukemia = tested on: SR leukemia
OVCAR-4 ovarian = tested on: OVCAR-4 ovarian
786-0 renal = tested on: 786-0 renal
UACC-257 melanoma = tested on: UACC-257 melanoma
SW-620 colon = tested on: SW-620 colon
HL-60(TB) leukemia = tested on: HL-60(TB) leukemia
K-562 leukemia = tested on: K-562 leukemia
SF-268 CNS = tested on: SF-268 CNS
KM12 colon = tested on: KM12 colon
NCI-H460 lung = tested on: NCI-H460 lung
CAKI-1 renal = tested on: CAKI-1 renal
HOP-62 NSCLC = tested on: HOP-62 NSCLC
KM20L2 colon = tested on: KM20L2 colon
MOLT-4 leukemia = tested on: MOLT-4 leukemia
RXF 393 renal = tested on: RXF 393 renal
DMS 273 small cell lung = tested on: DMS 273 small cell lung
SK-MEL-5 melanoma = tested on: SK-MEL-5 melanoma
U251 CNS = tested on: U251 CNS
SF-295 CNS = tested on: SF-295 CNS
A498 renal = tested on: A498 renal
HT29 colon = tested on: HT29 colon
DMS 114 small cell lung = tested on: DMS 114 small cell lung
OVCAR-5 ovarian = tested on: OVCAR-5 ovarian
CCRF-CEM leukemia = tested on: CCRF-CEM leukemia
A549 NSCLC = tested on: A549 NSCLC
M14 melanoma = tested on: M14 melanoma
SNB-78 CNS = tested on: SNB-78 CNS
SN12C renal = tested on: SN12C renal
HOP-18 NSCLC = tested on: HOP-18 NSCLC
SF-539 CNS = tested on: SF-539 CNS
SNB-19 CNS = tested on: SNB-19 CNS
MALME-3M melanoma = tested on: MALME-3M melanoma
NCI-H226 lung = tested on: NCI-H226 lung
HOP-92 NSCLC = tested on: HOP-92 NSCLC
COLO 205 colon = tested on: COLO 205 colon
DLD-1 colon = tested on: DLD-1 colon
OVCAR-8 ovarian = tested on: OVCAR-8 ovarian
ACHN renal = tested on: ACHN renal
IGROV1 ovarian = tested on: IGROV1 ovarian
SNB-75 CNS = tested on: SNB-75 CNS

Measured: TGI

CCCC(=O)C(CC)/C(CCC(=O)N(Cc1ccccc1)Cc1ccccc1)=N/NC(=O)C[N+](C)(C)C (configuration not stated)
> 100 µM: all assays above
